Measured values: US10071095B2, “1,2,4-triazolo [4,3-A] pyridine derivatives and their use for the treatment of neurological and psychiatric disorders” (JANSSEN PHARMACEUTICALS, INC., priority 2009, dated 2018)

Tests used:
human mGluR2 receptor = target: T1, human mGluR2 receptor (Homo sapiens, UniProt Q14416); experiment: [35S]GTPγS binding assay, positive allosteric modulation (GTPγS-PAM) in presence of EC20 glutamate; assay type: biochemical; details: in presence of glutamate at EC20, average pEC50 if more experiments, ‡ means tested once; for EC50: read-out: GTPγS - hR2 PAM pEC50 (converted)
T1 construct: expressed in transfected cells; host or cells: CHO cells
Procedure, shortened: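 Membranes from butyrate-stimulated CHO cells expressing human mGluR2 (7 μg protein) preincubated 30 min at 30°C with compound plus ~EC20 glutamate in HEPES pH 7.4, 100 mM NaCl, 3 mM MgCl2, 10 μM GDP, 10 μg/ml saponin. [35S]GTPγS (0.1 nM) incorporation over 30 min at 30°C measured by filtration and scintillation counting.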

[1] = system: PCP-induced hyperlocomotion in male NMRI mice; experiment: Phencyclidine (PCP)-induced hyperlocomotion in mice (video tracking); assay type: in vivo; details: for Mice ED50 (mg/kg) PCP-Inh. / Mice ED50 (mg/kg) PCP-Inh., estimated ED50 (footnote a): inhibition of PCP-induced hyperlocomotion; for Mice ED50 (mg/kg) PCP-Inh.: dose at which 50% of the tested animals show the effect; for Mice ED50 (mg/kg) PCP-Inh., estimated ED50 (footnote a): estimated ED50 values (n = 3 per dose; 4-fold separation between doses)
Procedure: Motor Activity (Video Tracking)
Apparatus and General Procedure
On the day of experiments, the mice were brought into the procedural room. They were housed individually and allowed to acclimate for at least a half hour prior to testing. Although the studies were conducted during the light cycle (from 8:00 to 16:00 h), the procedure room was only sparsely lit (3 to 30 LUX) to provide better contrast for the video tracking. Local lighting was used for the injection procedures. During each trial, an individual mouse was placed in an open field arena (grey PVC cylinder with a height of 40 cm and a diameter of 22.5 cm). Each arena was placed on an infrared LED (8×8 LEDs)-lit box (white PVC squared box; 40×40 cm^2; height 12.5 cm). Each mouse was placed in the center of the arena and allowed to explore freely for 30 min. After each trial, the arena was cleaned with a wet and subsequently with a dry cleaning cloth. An infrared sensitive tube camera and a white light source (in arena: 4-7 LUX) were mounted to the ceiling above the observation chamber to record and input activity to a computer. Animal behavior was recorded and analyzed using the Noldus Ethovision XT Video Tracking System (Version 3.1; Noldus, Wageningen, The Netherlands). The total distance traveled (cm) was calculated. Data were then exported to data management systems for further analysis and reporting.
Phencyclidine (PCP)-Induced Hyperlocomotion in Mice
Test compound or solvent was administered at a pre-defined time before measurement (standard: 30 min) to male NMRI mice that were challenged with phencyclidine (PCP; 5 mg/kg, s.c.) 30 min before measurement. Activity was measured for a period of 30 min.

T1 sequence (Q14416 19-872): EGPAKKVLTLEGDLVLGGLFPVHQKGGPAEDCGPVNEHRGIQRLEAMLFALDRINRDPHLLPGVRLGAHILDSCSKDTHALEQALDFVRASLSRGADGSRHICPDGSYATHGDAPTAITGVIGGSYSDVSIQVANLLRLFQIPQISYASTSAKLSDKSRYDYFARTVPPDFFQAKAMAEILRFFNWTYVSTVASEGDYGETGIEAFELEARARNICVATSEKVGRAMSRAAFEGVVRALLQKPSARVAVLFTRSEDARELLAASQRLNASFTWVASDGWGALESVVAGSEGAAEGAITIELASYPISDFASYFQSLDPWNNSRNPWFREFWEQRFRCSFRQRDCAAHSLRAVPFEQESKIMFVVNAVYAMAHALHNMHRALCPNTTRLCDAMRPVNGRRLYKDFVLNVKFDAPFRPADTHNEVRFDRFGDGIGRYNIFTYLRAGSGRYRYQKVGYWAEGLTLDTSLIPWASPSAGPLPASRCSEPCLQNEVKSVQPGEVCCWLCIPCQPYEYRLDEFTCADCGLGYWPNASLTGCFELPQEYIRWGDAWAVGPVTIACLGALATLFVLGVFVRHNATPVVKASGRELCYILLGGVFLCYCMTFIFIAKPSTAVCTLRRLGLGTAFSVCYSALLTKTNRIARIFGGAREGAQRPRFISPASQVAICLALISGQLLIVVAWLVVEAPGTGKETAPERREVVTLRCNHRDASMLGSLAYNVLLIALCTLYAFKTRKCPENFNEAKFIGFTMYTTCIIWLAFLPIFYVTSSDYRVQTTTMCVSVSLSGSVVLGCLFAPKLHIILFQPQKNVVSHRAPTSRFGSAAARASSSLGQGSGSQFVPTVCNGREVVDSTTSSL

Compound	melting point [°C]	EC50 (human mGluR2 receptor) [nM]	GTPγS - hR2 PAM pEC50 (human mGluR2 receptor)	other results
CC1(C)CN(c2ccn3c(CC(F)(F)F)nnc3c2Cl)CCN1c1ccccc1 [compound 100, 8-Chloro-3-(2,2,2-trifluoroethyl)-7-(3,3-dimethyl-4-phenyl-piperazin-1-yl)-[1,2,4]triazolo[4,3-a]pyridine]	260.2	309	–	–
FC(F)(F)Cc1nnc2c(Cl)c(N3CCC4(CC3)OCc3ccccc34)ccn12 [compound 8]	> 300	97.7	–	–
Cc1c(C2CCN(c3ccc(F)cc3F)CC2)ccn2c(CC3CC3)nnc12 [compound 204, 3-Cyclopropylmethyl-7-[1-(2,4-difluoro-phenyl)-piperidin-4-yl]-8-methyl-[1,2,4]triazolo[4,3-a]pyridine]	283.5	1350	–	–
Fc1cccc(F)c1N1CCN(Cc2ccn3c(CC4CC4)nnc3c2Cl)CC1 [compound 282]	180.4	204	–	–
Fc1cccc(F)c1C1CCN(c2ccn3c(CC4CC4)nnc3c2Cl)CC1 [compound 300]	–	–	7.24	inhibition of PCP-induced hyperlocomotion in mice (in words) [1]: inhibited; Mice ED50 (mg/kg) PCP-Inh., estimated ED50 (footnote a) [1]: 12.6 ^a) mg/kg
FC(F)(F)c1c(CN2CCC(F)(c3ccccc3)CC2)ccn2c(CC3CC3)nnc12 [compound 250, 3-(Cyclopropylmethyl)-7-[(4-fluoro-4-phenyl-1-piperidinyl)methyl]-8-(trifluoromethyl)-1,2,4-triazolo[4,3-a]pyridine]	–	–	–	ED50 ([1]; Mus musculus, read-out: Mice ED50 (mg/kg) PCP-Inh.): > 10 mg/kg
N#Cc1c(N2CCC(c3ccccc3)CC2)ccn2c(CN3CCOCC3)nnc12 [compound 11]	300	7590	–	–
FC(F)(F)Cc1nnc2c(Cl)c(N3CCC4(CC3)COc3ccccc34)ccn12 [compound 16, 1′-[8-Chloro-3-(2,2,2-trifluoroethyl)[1,2,4]triazolo[4,3-a]pyridin-7-yl]-spiro[1-benzofuran-3,4′-piperidine]]	269.1	178	–	–
CC(C)OCc1nnc2c(C(F)(F)F)c(N3CCC(F)(c4ccccc4)CC3)ccn12 [compound 18, 7-(4-Fluoro-4-phenylpiperidin-1-yl)-3-[(1-methylethoxy)methyl]-8-(trifluoromethyl)[1,2,4]triazolo[4,3-a]pyridine]	153.7	69.2	–	–
N#Cc1c(N2CCN(C3CCC(C(F)(F)F)CC3)CC2)ccn2c(CC3CC3)nnc12 (stereo not drawn) [compound 44]	–	–	6.02	Mice ED50 (mg/kg) PCP-Inh. [1]: >40 mg/kg
CC(C)Cc1nnc2c(Cl)c(N3CCC(c4ccccc4)CC3)ccn12 [compound 9, 8-Chloro-3-(2-methylpropyl)-7-(4-phenyl-1-piperidinyl)-1,2,4-triazolo[4,3-a]pyridine]	–	269	–	–
FC(F)(F)C1(OCc2cccnc2)CCN(c2ccn3c(CC4CC4)nnc3c2Cl)CC1 [compound 158]	–	–	6.14	–
CC1(C)OC2(CCN(c3ccn4c(CC(F)(F)F)nnc4c3Cl)CC2)c2ccccc21 [compound 139]	–	4.37	–	–
Clc1c(N2CCN(c3ccccc3)CC2)ccn2c(CC3CC3)nnc12 [compound 99]	–	–	6.03	–
Fc1ccc(N2C[C@@H]3CN(c4ccn5c(CC6CC6)nnc5c4C(F)(F)F)C[C@@H]3C2)c(F)c1 [compound 166]	–	–	7.22	–
CCOCc1nnc2c(Cl)c(N3CCC(c4cc(F)ccc4OC)CC3)ccn12 [compound 83]	–	–	7.64	–
COc1ccc(F)cc1C1CCN(c2ccn3c(CC(F)(F)F)nnc3c2Cl)CC1 [compound 61]	–	–	7.98	–
CC1CN(c2ccn3c(CC4CC4)nnc3c2Cl)CCC1c1ccccc1 (single isomer, unassigned) [compound 208]	–	–	7.06	–
CCOCc1nnc2c(Cl)c(N3CCC(c4ccccc4OC)CC3)ccn12 [compound 82]	–	–	7.51	–
Clc1c(N2CCN(c3coc4ccccc34)CC2)ccn2c(CC3CC3)nnc12 [compound 157]	–	–	6.18	–
FC(F)(F)Cc1nnc2c(Cl)c(CN3CCC(c4ccccc4)CC3)ccn12 [compound 30]	–	–	6.95	inhibition of PCP-induced hyperlocomotion in mice (in words) [1]: inhibited; Mice ED50 (mg/kg) PCP-Inh., estimated ED50 (footnote a) [1]: 5 ^a) mg/kg
N#Cc1c(N2CCC(c3ccccc3)CC2)ccn2c(-c3ccccc3)nnc12 [compound 205]	–	–	6.61‡	–
CC(C)OCc1nnc2c(Cl)c(N3CCC(c4ccccc4)CC3)ccn12 [compound 135]	–	–	6.77	–
CCOCc1nnc2c(Cl)c(N3CCC(c4c(F)ccc(F)c4OC)CC3)ccn12 [compound 86]	–	–	7.95	–
O=C1OC2(CCN(c3ccn4c(CC5CC5)nnc4c3Cl)CC2)c2ccccc21 [compound 149]	–	–	6.5‡	–
Fc1cccc2c1COC21CCN(c2ccn3c(CC4CC4)nnc3c2C(F)(F)F)CC1 [compound 109]	–	–	7.29	–

The next lines start with results.

melting point [°C]	EC50 (human mGluR2 receptor) [nM]	GTPγS - hR2 PAM pEC50 (human mGluR2 receptor)	Compound	other results
300	40.7	–	FC(F)(F)c1c(N2CCC(c3ccccc3)CC2)ccn2c(CCC3CC3)nnc12 [compound 123, 8-Trifluoromethyl-3-(2′-cyclopropyl)ethyl-7-(4-phenylpiperidin-1-yl)-[1,2,4]triazolo[4,3-a]pyridine]	–
–	–	6.83	FC(F)(F)c1c(N2CCC(c3ccccn3)CC2)ccn2c(CC3CC3)nnc12 [compound 78]	Mice ED50 (mg/kg) PCP-Inh. [1]: ≥10^ mg/kg
218.4	234	–	FC(F)(F)c1c(N2CCN(c3ccccc3)C3(CC3)C2)ccn2c(CC3CC3)nnc12 [compound 121, 1′-[3-cyclopropylmethyl-8-(trifluoromethyl)[1,2,4]triazolo[4,3-a]pyridin-7-yl]-4-phenyl-4,7-diaza-spiro[2.5]octane]	–
> 300	251	–	CCc1c(N2CCC(c3ccccc3)CC2)ccn2c(CC3CC3)nnc12 [compound 171, 3-Cyclopropylmethyl-8-ethyl-7-(4-phenylpiperidin-1-yl)-[1,2,4]triazolo[4,3-a]pyridine]	–
281.5	35.5	–	Brc1c(N2CCC(c3ccccc3)CC2)ccn2c(CC3CC3)nnc12 [compound 207, 8-Bromo-3-cyclopropylmethyl-7-[4-phenylpiperidin-1-yl]-[1,2,4]triazolo[4,3-a]pyridine]	–
> 300	417	–	Cc1c(N2CCC(c3ccccc3)CC2)ccn2c(CC3CC3)nnc12 [compound 145, 3-Cyclopropylmethyl-8-methyl-7-(4-phenyl-piperidin-1-yl)-[1,2,4]triazolo[4,3-a]pyridine]	–
> 300	195	–	FC(F)(F)c1c(N2CCC(c3ccccc3)CC2)ccn2c(Cc3ccccn3)nnc12 [compound 153, 8-Trifluoromethyl-3-(2-pyridinylmethyl)-7-(4-phenylpiperidin-1-yl)-1,2,4-triazolo[4,3-a]pyridine]	–
> 300	204	–	c1ccc(C2CCN(c3ccn4c(CC5CC5)nnc4c3C3CC3)CC2)cc1 [compound 159, 3-Cyclopropylmethyl-8-cyclopropyl-7-(4-phenylpiperidin-1-yl)-[1,2,4]triazolo[4,3-a]pyridine]	–
> 300	363	–	CC1(c2ccccn2)CCN(c2ccn3c(CC4CC4)nnc3c2C(F)(F)F)CC1 [compound 148, 8-Trifluoromethyl-3-(cyclopropylmethyl)-7-(4-methyl-4-(2-pyridinyl)-piperidin-1-yl)-1,2,4-triazolo[4,3-a]pyridine]	–
–	–	6.94	CCc1nnc2c(C(F)(F)F)c(N3CCC(c4ccccc4)CC3)ccn12 [compound 66]	inhibition of PCP-induced hyperlocomotion in mice (in words) [1]: inhibited; Mice ED50 (mg/kg) PCP-Inh. [1]: 17.4 ^ mg/kg
–	–	6.98	FC(F)(F)c1c(N2CCC(Oc3ccccn3)CC2)ccn2c(CC3CC3)nnc12 [compound 124]	–
–	–	7.41	FC(F)(F)c1c(N2CCC(F)(c3ccccc3)CC2)ccn2c(CC3CC3)nnc12 [compound 2, 3-Cyclopropylmethyl-7-(4-fluoro-4-phenyl-1-piperidinyl)-8-(trifluoromethyl)-1,2,4-triazolo[4,3-a]pyridine]	–
–	–	6.4	FC(F)(F)c1c(N2Cc3ccccc3C2)ccn2c(CC3CC3)nnc12 [compound 130]	–
–	–	6.26	COc1cnc(C2CCN(c3ccn4c(CC5CC5)nnc4c3C(F)(F)F)CC2)nc1 [compound 111]	–
